{
  "source": "patent US20260231998A1",
  "about": "“COMPOSITIONS FOR MODULATING GUT MICROFLORA POPULATIONS, TREATMENT OF DYSBIOSIS AND DISEASE PREVENTION, AND METHODS FOR MAKING AND USING SAME” (PERSEPHONE BIOSCIENCES, INC., priority 2023, published 2026)",
  "key": {"[1]": {"system": "Bifidobacterium infantis strain PB-STR-093", "experiment": "Antibiotic susceptibility (MIC) of isolated strains, EFSA standards", "assay_type": "cell-based", "conditions": "observed value", "experimental": "In alternative embodiments the complete genome sequence of each organism is screened to ensure it contains no genes or pathogenicity island gene clusters encoding known virulence factors, toxins, or antibiotic resistance functions, using publicly available databases such as DBETH55 (for example, see Chakraborty A, et al. (2012) Nucleic Acids Res. 40:615-620) and VFDB56 (Chen L, et al. (2005) Nucleic Acids Res. 33:325-328). Each organism is evaluated by standard antibiotic sensitivity profile techniques such as broth microdilution susceptibility panels or plate-based methods such as disk diffusion method and antimicrobial gradient method (James H. Jorgensen and Mary Jane Ferraro 2009 Clinical Infectious Diseases 49:1749-1755). Such tests determine the minimal inhibitory concentration (MIC) of an antibiotic on microbial growth. Antibiotics evaluated include but are not limited to amoxicillin, amoxicillin/clavulanic acid, carbapenem, methicillin, ampicillin, gentamicin, metronidazole, vancomycin, and neomycin. MIC determinations of novel microbes are compared to published values for both sensitive and resistant related strains to make an assessment on sensitivity (CLSI Guideline M45: Methods for Antimicrobial Dilution and Disk Susceptibility Testing of Infrequently Isolated or Fastidious Bacteria. Wayne, PA; 2015) to determine possible relative increases in antibiotic resistance."}, "[2]": {"system": "Bifidobacterium infantis strain PB-STR-093", "conditions": "expected value based on the EFSA standards; cited from earlier work"}, "[3]": {"experiment": "Growth (OD600) of isolated microbial strains on medium with different carbon sources", "assay_type": "cell-based", "experimental": "The growth of isolated strains is evaluated to determine their ability to consume carbon sources and produce specific metabolites. Strains are grown in a minimal media (for example 2 grams (2 ml fine) peptone water (peptone, 10 g/L sodium chloride, 5 g/L), 2 grams yeast extract, 2 grams NaHCO3, 0.1 g NaCl, 0.04 g K2HPO4, 0.04 g KH2PO4, 0.01 g MgSO4·7H2O, 0.01 g CaCl2·6H2O, 2 ml Tween 80, 10 g carbohydrate of choice, 10 μl vitamin K, 0.5 g cysteine, 0.5 g bile salts) that affords control over carbon source. Examples of carbon sources evaluated (independently or in combination) include but are not limited to glucose, lactose, galactose, fructose, xylose, galactooligosaccharides, fructooligosaccharides, xylooligosaccharides, lacto-N-tetraose, lacto-N-neotetraose, 2′-fucosyllactose, 3-fucosyllactose, 3′-sialyllactose, and 6′-sialyllactose. Growth is evaluated by determination of the OD600, which can be performed either on individual samples with a cuvette or tube-based spectrometer (for example the CO 75000™ colorimeter) or on multiple samples in a plate-based format using a plate reader (for example CYTATION 3™). In both cases, values are normalized based on signals from media alone.\nSelect bacteria were evaluated for their ability to consume different carbon sources to aid in selection of live biotherapeutic (probiotic) bacteria and combinations, mixes and consortia of bacteria as provided herein, and prebiotic combinations (see Table 6) used in compositions and methods as provided herein;"}, "[4]": {"system": "simulated gut environment", "experiment": "Simulated gut environment: community composition after introduction of bacteria and/or prebiotics (whole genome sequencing)", "assay_type": "cell-based, human", "conditions": "B. infantis combined with lacto-N-tetraose (LNT)", "protocol": "The ability of a bacterial addition (representing a probiotic application) to shift the composition of the gut environment was evaluated through the introduction of Bifidobacterium infantis isolate PB-STR-093.\nFifteen different combinations were evaluated covering Bifidobacterium infantis, Bifidobacterium longum, Bifidobacterium breve, and Bifidobacterium bifidum (shown in table 31, where the numerical value for each combination represents the ratio of the microbe in the combination). […] Compositions were also evaluated for their ability to reduce pathogenic species, as well as their metabolic output."}, "[5]": {"system": "Escherichia coli", "experiment": "Simulated gut environment: levels of potentially pathogenic bacteria", "assay_type": "cell-based", "conditions": "LNT as carbon source together with B. infantis", "experimental": "(§1) To understand the applicability of in vitro observations to the human gut, strains are evaluated in the context of a simulated gut environment. These gut environments are produced with minimal media and seeded with FMT aliquots (Example 2) to reproduce an environment that represents the gut. In these environments, the introduction of prebiotics (in the form of carbon sources, nitrogen sources, and other small molecules) and the introduction of bacteria can be used to shift the community composition, metabolic output, and immunological impact of the gut environments. This allows prebiotic, probiotic, and synbiotic (prebiotic and, probiotic) combinations to be rapidly evaluated to confirm or reject observations determined in simpler systems such as single strain microbial cultures. In subsequent embodiments, machine learning will be used to further reduce the space that must be explored experimentally."}, "[6]": {"system": "Streptococcus vestibularis", "experiment": "Simulated gut environment: levels of potentially pathogenic bacteria", "assay_type": "cell-based", "conditions": "LNT as carbon source together with B. infantis", "experimental": "as §1"}},
  "data": [
    {"compound": "CCC[C@@H]1C[C@@H](C(=O)N[C@@H]([C@H]2O[C@H](SC)[C@H](O)[C@@H](O)[C@H]2O)[C@H](C)Cl)N(C)C1", "note": "[Clindamycin]", "values": [
      {"measurement": "Observed Antibiotic MIC", "setting": "[1]", "result": 0.125, "unit": "µg/mL"}
    ]},
    {"compound": "CN[C@H](CC(C)C)C(=O)N[C@H]1C(=O)N[C@@H](CC(N)=O)C(=O)N[C@H]2C(=O)N[C@H]3C(=O)N[C@H](C(=O)N[C@H](C(=O)O)c4cc(O)cc(O)c4-c4cc3ccc4O)[C@H](O)c3ccc(c(Cl)c3)Oc3cc2cc(c3O[C@@H]2O[C@H](CO)[C@@H](O)[C@H](O)[C@H]2O[C@H]2C[C@](C)(N)[C@H](O)[C@H](C)O2)Oc2ccc(cc2Cl)[C@H]1O", "note": "[Vancomycin]", "values": [
      {"measurement": "Observed Antibiotic MIC", "setting": "[1]", "result": 0.5, "unit": "µg/mL"},
      {"measurement": "Expected Antibiotic MIC", "setting": "[2]", "result": 2, "unit": "µg/mL"}
    ]},
    {"compound": "O=C(N[C@H](CO)[C@H](O)c1ccc([N+](=O)[O-])cc1)C(Cl)Cl", "note": "[Chloramphenicol]", "values": [
      {"measurement": "Observed Antibiotic MIC", "setting": "[1]", "result": 4, "unit": "µg/mL"},
      {"measurement": "Expected Antibiotic MIC", "setting": "[2]", "result": 4, "unit": "µg/mL"}
    ]},
    {"compound": "[H]/N=C(/N)N[C@H]1[C@H](O)[C@@H](O)[C@H](O[C@@H]2O[C@@H](C)[C@](O)(C=O)[C@H]2O[C@@H]2O[C@@H](CO)[C@H](O)[C@@H](O)[C@@H]2NC)[C@@H](N/C(N)=N\\[H])[C@@H]1O", "note": "[Streptomycin]", "values": [
      {"measurement": "Observed Antibiotic MIC", "setting": "[1]", "result": 32, "unit": "µg/mL"},
      {"measurement": "Expected Antibiotic MIC", "setting": "[2]", "result": 128, "unit": "µg/mL"}
    ]},
    {"compound": "Bacteroides fragilis", "values": [
      {"measurement": "OD(600) after 24 hours growth", "setting": "[3]; carbon source 2′-FL", "result": 0.261},
      {"measurement": "OD(600) after 24 hours growth", "setting": "[3]; carbon source 3′-SL", "result": 0.457},
      {"measurement": "OD(600) after 24 hours growth", "setting": "[3]; carbon source FOS", "result": 0.433},
      {"measurement": "OD(600) after 24 hours growth", "setting": "[3]; carbon source GOS", "result": 0.325},
      {"measurement": "OD(600) after 24 hours growth", "setting": "[3]; carbon source Glucose", "result": 0.353},
      {"measurement": "OD(600) after 24 hours growth", "setting": "[3]; carbon source LNT", "result": 0.337},
      {"measurement": "OD(600) after 24 hours growth", "setting": "[3]; carbon source Mucin", "result": 0.186},
      {"measurement": "OD(600) after 24 hours growth", "setting": "[3]; carbon source XOS", "result": 0.359},
      {"measurement": "OD(600) after 24 hours growth", "setting": "[3]; medium with No Carbohydrate", "result": 0.073}
    ]},
    {"compound": "Gentamicin", "values": [
      {"measurement": "Observed Antibiotic MIC", "setting": "[1]", "result": 64, "unit": "µg/mL"},
      {"measurement": "Expected Antibiotic MIC", "setting": "[2]", "result": 64, "unit": "µg/mL"}
    ]},
    {"compound": "CC(=O)N[C@H]1[C@H](O[C@H]2[C@@H](O)[C@@H](CO)O[C@@H](O[C@H]3[C@H](O)[C@@H](O)C(O)O[C@@H]3CO)[C@@H]2O)O[C@H](CO)[C@@H](O)[C@@H]1O[C@@H]1O[C@H](CO)[C@H](O)[C@H](O)[C@H]1O", "note": "(some centres unmarked) [LNT, lacto-N-tetraose]", "values": [
      {"measurement": "growth, engraftment and abundance of Bifidobacterium infantis in the sample", "setting": "[4]", "result": "further boosts the abundance of Bifidobacterium infantis"},
      {"measurement": "level of Escherichia coli in simulated gut environment", "setting": "[5]", "result": "further reduces the presence of these bacteria"},
      {"measurement": "level of Streptococcus vestibularis in simulated gut environment", "setting": "[6]", "result": "further reduces the presence of these bacteria"}
    ]},
    {"compound": "CC1(C)S[C@@H]2[C@H](NC(=O)[C@H](N)c3ccccc3)C(=O)N2[C@H]1C(=O)O", "note": "[Ampicillin]", "values": [
      {"measurement": "Observed Antibiotic MIC", "setting": "[1]", "result": 2, "unit": "µg/mL"},
      {"measurement": "Expected Antibiotic MIC", "setting": "[2]", "result": 2, "unit": "µg/mL"}
    ]},
    {"compound": "CN(C)[C@@H]1C(O)=C(C(N)=O)C(=O)[C@@]2(O)C(O)=C3C(=O)c4c(O)cccc4[C@@](C)(O)[C@H]3C[C@@H]12", "note": "[Tetracycline]", "values": [
      {"measurement": "Observed Antibiotic MIC", "setting": "[1]", "result": 4, "unit": "µg/mL"}
    ]},
    {"compound": "CC[C@H]1OC(=O)[C@H](C)[C@@H](O[C@H]2C[C@@](C)(OC)[C@@H](O)[C@H](C)O2)[C@H](C)[C@@H](O[C@@H]2O[C@H](C)C[C@H](N(C)C)[C@H]2O)[C@](C)(O)C[C@@H](C)C(=O)[C@H](C)[C@@H](O)[C@]1(C)O", "note": "[Erythromycin]", "values": [
      {"measurement": "Observed Antibiotic MIC", "setting": "[1]", "result": 1, "unit": "µg/mL"},
      {"measurement": "Expected Antibiotic MIC", "setting": "[2]", "result": 1, "unit": "µg/mL"}
    ]}
  ]
}
